Source: the supplement of paper PMC10307832

Compound: Cc1cnc(Nc2ccc(OCCN3CCCC3)cc2)nc1Nc1cccc(S(=O)(=O)NC(C)(C)C)c1 [Fedratinib] + CCNC(=O)c1noc(-c2cc(C(C)C)c(O)cc2O)c1-c1ccc(CN2CCOCC2)cc1 [Luminespib] (partner 0.01 µM)
Assay: relative viability (nuclei count vs DMSO), 5 days (fraction); higher = more cells survive
Conditions: first compound 0.3162 µM
Procedure, shortened: (§1)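 Values are medians from duplicate plates. Each reflects relative viability, defined as the nuclei count of treated wells over that of vehicle wells. Lung cancer cell lines in 1536-well plates were pin-tool dosed one day after seeding with one drug alone or with a fixed anchor-drug dose plus five library-drug doses (not always all listed) in √10 steps, then fixed, stained and imaged at 4× after 5 days.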

Cell Line	relative viability
NCI-H1651	0.716
EPLC-272H	0.167
NCI-H2228	0.12
NCI-H1792	0.419
NCI-H1355	0.702
NCI-H3122	0.0986
NCI-H1437	1.04
NCI-H1755	0.595
NCI-H2023	0.581
HCC-15	0.247
PC-14	0.172
EKVX	0.866
LC-2-ad	1.06
NCI-H1563	0.504
NCI-H1944	0.801
NCI-H1975	0.266

Same assay, conditions: first compound 1 µM

Cell Line	relative viability
HARA	0.539
NCI-H322M	0.49
LCLC-97TM1	0.7
NCI-H2009	0.943
A-427	0.921
NCI-H441	0.343
NCI-H661	0.846
NCI-H1734	0.185
NCI-H460	0.0213
NCI-H2347	0.59
SK-LU-1	0.16
201T	1.02
NCI-H1915	0.734
HCC-827	0.492
LXF-289	0.747
NCI-H23	0.204
NCI-H647	0.177

Cell Line	relative viability
CAL-12T	0.361
NCI-H1651	1.09
EPLC-272H	0.205
NCI-H2228	0.119
NCI-H1792	0.362
NCI-H1355	0.696
NCI-H3122	0.088
NCI-H1437	1.13
NCI-H1755	0.381
NCI-H2023	0.632
HCC-15	0.381
PC-14	0.14
EKVX	0.934
LC-2-ad	0.917
NCI-H1563	0.516
NCI-H1944	0.763
NCI-H1975	0.178

Compound: Cc1cnc(Nc2ccc(OCCN3CCCC3)cc2)nc1Nc1cccc(S(=O)(=O)NC(C)(C)C)c1 [Fedratinib] + COc1cccc2cc(-c3nc([C@H]4CC[C@H](C(=O)O)CC4)n4ncnc(N)c34)[nH]c12 [OSI-027] (partner 0.5 µM)
Assay: as above
Conditions: first compound 0.1 µM
Procedure, shortened: as §1

Cell Line	relative viability
HARA	0.494
NCI-H322M	0.548
LCLC-97TM1	0.715
NCI-H2009	0.529
A-427	0.444
NCI-H441	0.443
NCI-H661	0.729
NCI-H1734	0.607
NCI-H460	0.642
NCI-H2347	0.292
SK-LU-1	0.307
201T	0.698
NCI-H1915	0.612
HCC-827	0.817
LXF-289	0.796
NCI-H23	0.579
NCI-H647	0.625

Cell Line	relative viability
CAL-12T	0.566
NCI-H1651	0.707
EPLC-272H	0.276
NCI-H2228	0.62
NCI-H1792	0.607
NCI-H1355	0.323
NCI-H3122	0.911
NCI-H1437	0.911
NCI-H1755	0.601
NCI-H2023	0.393
HCC-15	0.499
PC-14	0.746
EKVX	0.702
LC-2-ad	0.854
NCI-H1563	0.742
NCI-H1944	0.343
NCI-H1975	0.729

Same assay, conditions: first compound 0.3162 µM

Cell Line	relative viability
HARA	0.575
NCI-H322M	0.566
LCLC-97TM1	0.504
NCI-H2009	0.632
A-427	0.498
NCI-H441	0.625
NCI-H661	0.735
NCI-H1734	0.588
NCI-H460	0.645
NCI-H2347	0.428
SK-LU-1	0.35
201T	0.613
NCI-H1915	0.67
HCC-827	0.812
LXF-289	0.792
NCI-H23	0.654
NCI-H647	0.697

Cell Line	relative viability
CAL-12T	0.694
NCI-H1651	0.653
EPLC-272H	0.289
NCI-H2228	0.507
NCI-H1792	0.808
NCI-H1355	0.437
NCI-H3122	0.918
NCI-H1437	0.924
NCI-H1755	0.757
NCI-H2023	0.394
HCC-15	0.705
PC-14	0.88
EKVX	0.745
LC-2-ad	0.94
NCI-H1563	0.812
NCI-H1944	0.413
NCI-H1975	0.833

Same assay, conditions: first compound 1 µM

Cell Line	relative viability
HARA	0.291
NCI-H322M	0.462
LCLC-97TM1	0.452
NCI-H2009	0.455
A-427	0.118
NCI-H441	0.511
NCI-H661	0.55
NCI-H1734	0.536
NCI-H460	0.507
NCI-H2347	0.497
SK-LU-1	0.289
201T	0.588
NCI-H1915	0.319
HCC-827	0.915
LXF-289	0.791
NCI-H23	0.525
NCI-H647	0.444

Cell Line	relative viability
CAL-12T	0.474
NCI-H1651	0.62
EPLC-272H	0.114
NCI-H2228	0.482
NCI-H1792	0.748
NCI-H1355	0.258
NCI-H3122	0.854
NCI-H1437	0.825
NCI-H1755	0.651
NCI-H2023	0.328
HCC-15	0.576
PC-14	0.633
EKVX	0.758
LC-2-ad	0.609
NCI-H1563	0.754
NCI-H1944	0.344
NCI-H1975	0.602
